This passage reports Ki ratio results from ChEMBL document CHEMBL1128459, “Characterization of potent and selective antagonists at postsynaptic 5-HT1A receptors in a series of N4-substituted arylpiperazines” (J Med Chem, 1995).

5-hydroxytryptamine receptor 1A (Rattus norvegicus), sequence (P19327 whole entry, looked up): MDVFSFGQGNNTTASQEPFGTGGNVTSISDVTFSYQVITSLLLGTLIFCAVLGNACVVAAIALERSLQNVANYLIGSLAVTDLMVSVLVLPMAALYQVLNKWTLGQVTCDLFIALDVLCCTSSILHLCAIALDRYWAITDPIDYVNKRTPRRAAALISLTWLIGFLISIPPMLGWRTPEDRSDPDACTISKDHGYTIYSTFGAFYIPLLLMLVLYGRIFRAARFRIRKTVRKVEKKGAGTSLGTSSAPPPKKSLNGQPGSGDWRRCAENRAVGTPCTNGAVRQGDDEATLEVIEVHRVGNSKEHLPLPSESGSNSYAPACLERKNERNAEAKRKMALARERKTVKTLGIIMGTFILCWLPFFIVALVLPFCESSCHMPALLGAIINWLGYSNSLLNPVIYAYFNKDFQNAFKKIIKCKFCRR

One assay has as its target 5-hydroxytryptamine receptor 1A (Rattus norvegicus) (UniProt P19327). Kind of assay: Ki ratio measured as the Ki values of dopamine receptor to that of 5-hydroxytryptamine 1A receptor receptor.
With `c1ccc2c(c1)CC2CCN1CCN(c2cccc3c2OCCO3)CC1` (stereo unspecified), the Ki ratio is 79.4.

Regarding `COc1ccccc1N1CCN(C[C@@H](C(=O)NC(C)(C)C)c2ccccc2)CC1`, the Ki ratio was 12.

Take `c1ccc2c(c1)CC(N1CCN(c3cccc4c3OCCO4)CC1)C2`: the Ki ratio turned out to be 195.

Another assay has the same target. Kind of assay: Ki ratio measured as the Ki values of dopamine receptor to that of 5-hydroxytryptamine 1A receptor.
On to `Clc1cccc2c1CC2CCN1CCN(c2cccc3c2OCCO3)CC1` (stereo unspecified), for which the Ki ratio was determined as 26.9.

`COc1cc2c(cc1OC)C(CCN1CCN(c3cccc4c3OCCO4)CC1)CC2` (stereo unspecified): the Ki ratio was 83.4.

Turning to `c1ccc2c(c1)CC(N1CCN(c3cccc4c3OCCCO4)CC1)C2`, the Ki ratio was determined as 51.3.
